According to ChEMBL document CHEMBL1201862, “PubChem BioAssay data set” (2004):
The source made the active and inactive calls.

Key:
[1] = Late stage results for the probe development effort to identify inhibitors of Plasmodium falciparum gametocytes: Luminescence-based cell-based high throughput dose response assay to identify inhibitors of viability of late stage Plasmodium falciparum gametocytes.; type: functional
[2] = HepG2 cell cytotoxicity, dose response, cytotoxicity control for Shn3 inhibitor project, CellTiter-Glo, cherry-picked (AID 624134); type: functional, cell-based
[3] = control 3'UTR Renilla luciferase suppression, dose response, counter-screen for Shn3 inhibitor project, cell-based, Clone20-Shn3RL, cherry-picked (AID 624133); type: functional
[4] = inhibitors of control Renilla luciferase reporter, dose response, counter-screen for Shn3 3'UTR targeting project, Clone20-Shn3RL cells, dual-Glo, cherry-pick, set 2 (AID 720724); type: functional, cell-based; conditions: Dual-Go Shn3RL
[5] = reduction of Shn3 3'UTR firefly luciferase signal, dose response, Schnurri-3 inhibitor project, cell-based, Clone20 osteoblasts, cherry-pick, set 2 (AID 720490); type: functional;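 further: actives lower the luminescence signal as inhibitors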
[6] = Shn3 3'UTR reporter inhibitors, dose response, cell-based, Clone20 osteoblasts, firefly luciferase, cherry-picked (AID 624132); type: functional;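 further: firefly luciferase luminescence from reporter carrying the Shn3 3'UTR in osteoblasts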
[7] = inhibitors of Vif binding to APOBEC3G peptide, primary screen, biochemical, TR-FRET, GST-Vif 1-94, biotin-A3G peptide, dose response retest (AID 1117319); type: functional;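 further: TR-FRET signal of purified GST-Vif binding a biotinylated A3G peptide; inhibitors lower the FRET signal by blocking Vif and A3G binding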
[8] = half-maximal inhibitory concentration for glucagon-like peptide-1 release, STC-1 cell line, dose-response (AID 1117345); type: functional, cell-based
[9] = Glucagon-like peptide 1 release potency, NCI-H716 cell line, dose-response, half-maximal inhibitory concentration (AID 1117344); type: functional, cell-based
[10] = target: T1, Bcl-2-like protein 10 (Homo sapiens, UniProt Q9HD36); test: displacers of TR3 peptide from Bcl-B, primary screen, selectivity assay for Bfl-1 inhibitor project, biochemical, fluorescence polarization, FITC-TR3 peptide (AID 748);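 further: fluorescence polarization from a fluorescein-labelled TR3 peptide binding purified Bcl-B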
T1 sequence (Q9HD36 whole entry): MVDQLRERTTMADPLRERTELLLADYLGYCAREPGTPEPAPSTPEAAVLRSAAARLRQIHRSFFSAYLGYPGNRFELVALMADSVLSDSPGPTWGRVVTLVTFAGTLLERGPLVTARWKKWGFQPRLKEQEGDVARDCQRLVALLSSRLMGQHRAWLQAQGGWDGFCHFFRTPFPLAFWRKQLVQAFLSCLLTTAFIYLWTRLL

[11] = target: DNA (cytosine-5)-methyltransferase 1 (Homo sapiens, UniProt P26358); test: DNMT1 methyltransferase inhibitors, confirmation, biochemical, fluorescent molecular beacon (AID 602386); type: functional
Sequence of DNA (cytosine-5)-methyltransferase 1 (P26358 whole entry): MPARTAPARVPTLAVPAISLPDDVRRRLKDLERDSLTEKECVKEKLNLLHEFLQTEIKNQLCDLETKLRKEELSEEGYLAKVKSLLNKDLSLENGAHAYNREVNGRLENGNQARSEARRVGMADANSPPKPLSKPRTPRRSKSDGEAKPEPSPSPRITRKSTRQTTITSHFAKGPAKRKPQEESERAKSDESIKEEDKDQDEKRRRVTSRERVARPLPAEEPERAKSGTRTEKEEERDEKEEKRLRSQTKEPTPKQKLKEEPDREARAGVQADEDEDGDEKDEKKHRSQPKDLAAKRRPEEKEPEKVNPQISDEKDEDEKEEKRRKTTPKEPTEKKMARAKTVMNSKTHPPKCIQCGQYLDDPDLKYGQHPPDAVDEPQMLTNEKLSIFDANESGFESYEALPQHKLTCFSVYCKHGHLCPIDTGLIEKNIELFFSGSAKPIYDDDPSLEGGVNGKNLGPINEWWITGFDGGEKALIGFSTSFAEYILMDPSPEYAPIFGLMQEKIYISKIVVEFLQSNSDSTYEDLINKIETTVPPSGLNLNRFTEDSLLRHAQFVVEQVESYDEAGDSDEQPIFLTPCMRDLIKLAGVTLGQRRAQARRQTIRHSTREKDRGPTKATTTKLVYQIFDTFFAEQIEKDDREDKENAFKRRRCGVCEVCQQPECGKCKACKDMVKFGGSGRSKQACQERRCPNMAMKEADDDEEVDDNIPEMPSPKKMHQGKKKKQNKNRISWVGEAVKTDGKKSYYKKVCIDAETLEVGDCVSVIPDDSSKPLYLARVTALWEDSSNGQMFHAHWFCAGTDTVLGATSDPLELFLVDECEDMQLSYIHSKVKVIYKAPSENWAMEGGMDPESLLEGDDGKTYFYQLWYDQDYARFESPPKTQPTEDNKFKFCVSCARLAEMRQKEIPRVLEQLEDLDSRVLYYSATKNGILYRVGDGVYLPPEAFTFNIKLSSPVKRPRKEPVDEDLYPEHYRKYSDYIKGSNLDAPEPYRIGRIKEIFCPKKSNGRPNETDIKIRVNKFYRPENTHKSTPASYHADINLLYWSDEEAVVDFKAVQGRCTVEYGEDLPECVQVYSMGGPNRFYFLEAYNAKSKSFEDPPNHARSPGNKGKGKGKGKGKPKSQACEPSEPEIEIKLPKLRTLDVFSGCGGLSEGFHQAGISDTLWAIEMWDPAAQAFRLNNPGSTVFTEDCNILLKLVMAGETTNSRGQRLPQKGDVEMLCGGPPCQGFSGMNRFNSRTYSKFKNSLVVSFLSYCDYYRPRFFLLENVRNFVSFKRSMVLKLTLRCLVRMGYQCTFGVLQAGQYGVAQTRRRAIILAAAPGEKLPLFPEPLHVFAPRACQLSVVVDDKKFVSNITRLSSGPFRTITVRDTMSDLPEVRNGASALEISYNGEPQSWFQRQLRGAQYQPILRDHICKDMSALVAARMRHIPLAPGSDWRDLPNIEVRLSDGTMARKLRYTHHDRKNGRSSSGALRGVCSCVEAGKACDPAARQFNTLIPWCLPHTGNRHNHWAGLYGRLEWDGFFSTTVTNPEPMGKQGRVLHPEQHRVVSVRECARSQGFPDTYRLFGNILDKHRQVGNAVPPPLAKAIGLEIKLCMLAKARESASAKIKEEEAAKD

[12] = target: Genome polyprotein (Hepatitis C virus, UniProt Q2Q167); test: HCV core protein dimerization inhibitors, dose response, biochemical, TR-FRET (AID 2159); design: species or system Hepacivirus hominis;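 further: blocks dimerization of HCV core protein measured by TR-FRET between tagged core106 pairs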
Sequence of Genome polyprotein (Q2Q167 whole entry): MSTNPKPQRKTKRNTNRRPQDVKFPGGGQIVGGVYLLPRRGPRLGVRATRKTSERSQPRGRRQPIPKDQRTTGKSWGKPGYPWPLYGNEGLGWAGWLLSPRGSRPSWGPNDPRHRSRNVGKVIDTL

[13] = tested on: Streptococcus; test: Group A Streptococcus viability loss, dose response, counter-screen for streptokinase expression inhibitor project, luminescence, BacTiterGlo (AID 1915); type: functional, organism-based;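 further: potency for reduction of bacterial viability or growth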
[14] = tested on: Streptococcus sp. 'group A'; test: growth inhibition of control SK(-) GAS strain, dose response, counter-screen for streptokinase expression inhibitor project, luminescence, kanamycin, BacTiterGlo, confirmation (AID 1900); type: functional, organism-based
[15] = target: Phospholipase A2 (Homo sapiens, UniProt P04054); type: functional;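 further: confirmatory dose-response counterscreen on phospholipase A2, testing hits that came from an ultra-high-throughput screen for ATG4B inhibitors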
Sequence of Phospholipase A2 (P04054 whole entry): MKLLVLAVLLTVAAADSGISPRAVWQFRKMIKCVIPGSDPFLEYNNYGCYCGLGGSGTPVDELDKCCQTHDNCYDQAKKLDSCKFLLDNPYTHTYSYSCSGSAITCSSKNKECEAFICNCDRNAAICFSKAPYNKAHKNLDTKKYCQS

[16] = target: Beta-galactosidase (Escherichia coli, UniProt Q8VNN2); test: beta-galactosidase enzyme inhibitors and activators, dose response, artefact control for CCR6 antagonist project, biochemical, E. coli enzyme, set 3 (AID 504712); type: functional
Sequence of Beta-galactosidase (Q8VNN2 whole entry): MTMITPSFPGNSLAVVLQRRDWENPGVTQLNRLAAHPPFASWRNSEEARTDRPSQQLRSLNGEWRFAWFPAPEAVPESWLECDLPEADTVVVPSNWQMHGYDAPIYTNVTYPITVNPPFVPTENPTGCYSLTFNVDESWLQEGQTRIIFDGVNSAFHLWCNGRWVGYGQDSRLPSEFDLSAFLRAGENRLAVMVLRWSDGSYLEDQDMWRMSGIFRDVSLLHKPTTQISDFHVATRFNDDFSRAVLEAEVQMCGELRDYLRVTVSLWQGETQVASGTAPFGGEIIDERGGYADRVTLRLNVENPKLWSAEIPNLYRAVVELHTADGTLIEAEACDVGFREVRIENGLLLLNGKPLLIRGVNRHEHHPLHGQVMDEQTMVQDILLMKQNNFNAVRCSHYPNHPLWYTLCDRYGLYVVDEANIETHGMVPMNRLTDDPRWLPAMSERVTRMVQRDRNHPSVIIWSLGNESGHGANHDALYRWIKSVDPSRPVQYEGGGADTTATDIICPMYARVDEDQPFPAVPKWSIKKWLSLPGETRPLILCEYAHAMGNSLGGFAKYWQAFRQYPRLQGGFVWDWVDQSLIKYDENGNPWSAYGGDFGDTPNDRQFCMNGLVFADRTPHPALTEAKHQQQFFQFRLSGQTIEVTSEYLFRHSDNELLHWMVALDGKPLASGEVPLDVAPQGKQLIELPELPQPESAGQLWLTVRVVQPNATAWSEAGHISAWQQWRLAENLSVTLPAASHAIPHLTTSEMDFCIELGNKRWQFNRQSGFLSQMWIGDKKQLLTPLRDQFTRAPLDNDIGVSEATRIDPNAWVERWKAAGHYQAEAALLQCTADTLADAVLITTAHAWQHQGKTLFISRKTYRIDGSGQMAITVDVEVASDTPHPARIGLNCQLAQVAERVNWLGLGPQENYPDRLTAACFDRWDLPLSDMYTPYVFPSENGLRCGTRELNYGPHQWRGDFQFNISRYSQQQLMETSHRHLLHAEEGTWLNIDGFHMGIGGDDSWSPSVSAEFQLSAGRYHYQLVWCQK

[17] = target: Induced myeloid leukemia cell differentiation protein Mcl-1 (Homo sapiens, UniProt Q07820); type: functional
Sequence of Induced myeloid leukemia cell differentiation protein Mcl-1 (Q07820 whole entry): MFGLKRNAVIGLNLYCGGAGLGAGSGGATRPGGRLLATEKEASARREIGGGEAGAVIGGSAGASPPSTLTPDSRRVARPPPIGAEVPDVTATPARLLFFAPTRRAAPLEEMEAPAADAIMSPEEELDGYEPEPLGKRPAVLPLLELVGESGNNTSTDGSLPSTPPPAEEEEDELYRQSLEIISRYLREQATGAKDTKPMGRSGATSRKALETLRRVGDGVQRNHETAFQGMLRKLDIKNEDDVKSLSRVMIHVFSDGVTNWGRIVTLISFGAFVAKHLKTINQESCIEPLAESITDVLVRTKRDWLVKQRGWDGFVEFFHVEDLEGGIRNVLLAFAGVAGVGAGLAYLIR

[18] = target: T2, Cysteine protease ATG4B (Homo sapiens, UniProt Q9Y4P1); type: functional;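 further: Fluorescence-based dose-response confirmation assay measuring inhibition of ATG4B activity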
T2 sequence (Q9Y4P1 whole entry): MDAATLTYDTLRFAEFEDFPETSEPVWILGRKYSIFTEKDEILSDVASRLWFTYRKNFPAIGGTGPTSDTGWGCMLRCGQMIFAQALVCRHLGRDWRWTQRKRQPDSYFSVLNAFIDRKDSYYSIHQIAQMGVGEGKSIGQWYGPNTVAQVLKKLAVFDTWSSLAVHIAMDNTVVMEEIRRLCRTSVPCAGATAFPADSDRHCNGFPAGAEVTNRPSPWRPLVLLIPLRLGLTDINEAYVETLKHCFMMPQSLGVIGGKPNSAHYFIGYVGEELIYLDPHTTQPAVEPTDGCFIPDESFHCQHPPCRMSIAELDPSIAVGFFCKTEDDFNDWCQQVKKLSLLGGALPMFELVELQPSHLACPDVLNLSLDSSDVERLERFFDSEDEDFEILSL

[19] = target: NADPH oxidase 1 (Homo sapiens, UniProt Q9Y5S8); test: Late-stage luminescence-based cell-based dose response assay to identify inhibitors of NADPH oxidase 1 (NOX1): Synthesized analogs.; type: functional
Sequence of NADPH oxidase 1 (Q9Y5S8 whole entry): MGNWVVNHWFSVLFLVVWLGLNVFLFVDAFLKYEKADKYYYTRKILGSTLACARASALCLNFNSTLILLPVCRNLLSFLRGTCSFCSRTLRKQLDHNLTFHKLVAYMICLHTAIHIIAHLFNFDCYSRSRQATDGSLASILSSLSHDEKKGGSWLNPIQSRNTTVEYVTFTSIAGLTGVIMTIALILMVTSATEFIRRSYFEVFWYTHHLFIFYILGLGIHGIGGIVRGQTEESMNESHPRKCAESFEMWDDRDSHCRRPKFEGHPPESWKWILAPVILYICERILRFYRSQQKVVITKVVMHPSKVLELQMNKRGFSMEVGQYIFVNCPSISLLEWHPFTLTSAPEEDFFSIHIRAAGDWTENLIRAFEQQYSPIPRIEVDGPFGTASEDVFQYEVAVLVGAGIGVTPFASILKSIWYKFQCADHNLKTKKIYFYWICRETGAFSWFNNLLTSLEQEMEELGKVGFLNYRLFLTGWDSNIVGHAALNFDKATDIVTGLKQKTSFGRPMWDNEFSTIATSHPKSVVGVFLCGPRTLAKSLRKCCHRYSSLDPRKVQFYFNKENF

[20] = target: Prothrombin (Homo sapiens, UniProt P00734); test: Thrombin 1536 HTS Dose Response Confirmation. [Related pubchem assays: 1046 (Thrombin 1536 HTS; hits were confirmed in this assay)]; type: functional
[21] = target: Complement C1s subcomponent (Homo sapiens, UniProt P09871); test: Complement C1s ELISA. [Related pubchem assays: 538, 787 ]; type: functional
Sequence of Complement C1s subcomponent (P09871 16-437 limits assumed): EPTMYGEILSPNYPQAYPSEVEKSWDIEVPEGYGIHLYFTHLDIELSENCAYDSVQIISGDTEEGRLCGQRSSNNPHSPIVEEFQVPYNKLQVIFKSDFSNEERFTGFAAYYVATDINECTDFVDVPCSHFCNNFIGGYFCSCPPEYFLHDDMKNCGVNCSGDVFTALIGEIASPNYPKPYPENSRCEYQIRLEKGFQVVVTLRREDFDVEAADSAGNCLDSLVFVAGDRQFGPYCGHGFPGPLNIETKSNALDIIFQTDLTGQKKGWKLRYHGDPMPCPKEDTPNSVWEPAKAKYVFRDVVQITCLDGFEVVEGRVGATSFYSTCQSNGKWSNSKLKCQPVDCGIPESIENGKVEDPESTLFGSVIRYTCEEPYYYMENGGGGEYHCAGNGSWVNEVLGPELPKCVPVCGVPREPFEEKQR
Sequence of Complement C1s subcomponent (P09871 438-688 limits assumed): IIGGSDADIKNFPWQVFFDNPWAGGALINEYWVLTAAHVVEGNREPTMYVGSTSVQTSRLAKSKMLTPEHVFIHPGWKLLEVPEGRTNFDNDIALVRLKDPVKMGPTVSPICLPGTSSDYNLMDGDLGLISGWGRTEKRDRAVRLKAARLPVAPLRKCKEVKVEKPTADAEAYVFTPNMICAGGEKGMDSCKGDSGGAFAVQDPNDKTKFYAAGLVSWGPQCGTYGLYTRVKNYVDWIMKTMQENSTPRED

[22] = cytotoxicity in COV434 cells, dose response, cytotoxicity control for PAX8 inhibitor project, cell-based, plate reader, dry powder, SA7 (AID 743145); type: functional
[23] = target: Paired box protein Pax-8 (Homo sapiens, UniProt Q06710); test: inhibitors of PAX8-driven TPO luciferase reporter, dose response, RMG-I cells, cherry-pick (AID 687027); type: functional, cell-based;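 further: luciferase reporter driven by Pax8 target thyroperoxidase promoter measured by SteadyGlo luminescence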
Sequence of Paired box protein Pax-8 (Q06710 whole entry): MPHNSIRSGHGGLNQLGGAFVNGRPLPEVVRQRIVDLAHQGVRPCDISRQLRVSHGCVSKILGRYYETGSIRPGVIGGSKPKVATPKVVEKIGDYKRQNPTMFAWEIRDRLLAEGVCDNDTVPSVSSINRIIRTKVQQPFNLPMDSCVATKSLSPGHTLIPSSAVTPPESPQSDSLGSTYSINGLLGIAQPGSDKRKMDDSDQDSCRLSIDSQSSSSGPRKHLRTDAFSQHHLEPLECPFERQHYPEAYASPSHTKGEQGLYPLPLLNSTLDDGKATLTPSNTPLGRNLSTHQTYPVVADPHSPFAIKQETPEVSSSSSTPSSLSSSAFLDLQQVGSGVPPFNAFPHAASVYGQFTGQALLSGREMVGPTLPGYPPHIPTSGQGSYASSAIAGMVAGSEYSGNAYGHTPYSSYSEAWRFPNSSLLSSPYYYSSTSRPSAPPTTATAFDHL

[24] = IGROV1 ovarian cancer cell cytotoxicity, dose response, PAX8 inhibitor project, plate reader, dry powder samples (AID 743043); type: functional, cell-based; conditions: IGROV-1
[25] = cytotoxicity in COV362 ovarian cancer cells, dose response, cytotoxicity control for PAX8 inhibitor project, cell-based, plate reader, dry powder, SA12 (AID 743144); type: functional
[26] = cytotoxicity in OVCAR4 cells, dose response, cytotoxicity control for PAX8 inhibitor project, cell-based, plate reader, dry powder, SA11 (AID 743150); type: functional; conditions: OVCAR-4
[27] = NIH:OVCAR-3 ovarian cancer cell cytotoxicity, dose response, PAX8 inhibitor project, plate reader, dry powder samples (AID 743044); type: functional, cell-based
[28] = IOSE-T80 ovarian epithelial cell cytotoxicity, dose response, cytotoxicity control for PAX8 inhibitor project, plate reader, dry powder samples (AID 743045); type: functional, cell-based
[29] = non-specific cell cytotoxicity, dose response, cytotoxicity control for PAX8 inhibitor project, plate reader, dry powder samples (AID 743021); type: functional, cell-based
[30] = PAX5 activity inhibitors, dose response, selectivity assay for PAX8 inhibitor project, cell-based, plate reader, dry powder samples (AID 743047); type: functional;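 further: HEK293 cells carrying a Pax5 driven CD19 promoter luciferase reporter; potency of inhibitors that lower reporter luminescence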
[31] = PAX2 cell-based inhibition, dose response, selectivity assay for PAX8 inhibitor project, plate reader, dry powder samples (AID 743048); type: functional;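 further: HEK293 cells carrying a WT1 promoter luciferase reporter driven by expressed Pax2; potency is for inhibition of Pax2 driven reporter signal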
[32] = cytotoxicity in OV-90 ovarian cancer cells, dose response, PAX8 inhibitor project, cell-based, plate reader, dry powder, SA8 (AID 743149); type: functional

## O=C(Nc1nccs1)c1cc(-c2ccccc2)nn1-c1ccccc1
[1]
  IC50: > 37.2 µM (inactive)

## CCOc1cc(CNCCc2ccc(S(N)(=O)=O)cc2)ccc1OCc1ccccc1
[2]
  AC50: > 70 µM (inactive)
[3]
  AC50: 25.5 µM (active)
[4]
  AC50: 31.9 µM (active)
[5]
  AC50: 3.56 µM (active)
[6]
  AC50: 2.44 µM (active)

## COc1cccc(-c2cc(C(=O)Nc3cnn(Cc4ccccc4C)c3)no2)c1
[7]
  IC50: > 100 µM (active)

## Oc1cccc2cccnc12
[8]
  IC50: > 20 µM (inactive)
[9]
  IC50: > 40 µM (inactive)

## CCOc1cc(/C=C2\C(=O)N(c3nc(-c4ccc(Br)cc4)cs3)N=C2c2ccccc2)ccc1O
[10]
  IC50: 43.8 µM (active)
[11]
  IC50: 4.35 µM (active)
[12]
  IC50: > 49.8 µM (not active)
[13]
  EC50: 3.67 µM (active)
[14]
  EC50: 1.78 µM (active)
[15]
  IC50: 6.97 µM (active)
[16]
  IC50: > 66.6 µM (inactive)
[17]
  IC50: 2.54 µM (active)
[18]
  IC50: 5.08 µM (active)

## O=C(c1ccco1)N1c2ccccc2Sc2ccccc21
[19]
  IC50: 6.37 µM (active)

## COc1ccc(-c2nc(SC)n(C(=O)c3ccco3)n2)cc1
[20]
  IC50: 1.14 µM (active)
[21]
  IC50: > 50 µM (not active)

## Cc1ccccc1CNC(=O)C1CCCN(c2nnc(C)c3c(C)n(-c4ccccc4)nc23)C1 (configuration not stated)
[22]
  AC50: 98.3 µM (active)
[23]
  AC50: 5.95 µM (active)
[24]
  AC50: 32.4 µM (active)
[25]
  AC50: 42.3 µM (active)
[26]
  AC50: 61.3 µM (active)
[27]
  AC50: 42.8 µM (active)
[28]
  AC50: 91.9 µM (active)
[29]
  AC50: < 29.5 µM (active)
[30]
  AC50: 24 µM (active)
[31]
  AC50: 4.18 µM (active)
[32]
  AC50: 9.9 µM (active)
